By IC50 is commonly meant the concentration at which inhibition is half-maximal.

Human complement C1s enzyme, sequence (P09871 438-688 limits assumed): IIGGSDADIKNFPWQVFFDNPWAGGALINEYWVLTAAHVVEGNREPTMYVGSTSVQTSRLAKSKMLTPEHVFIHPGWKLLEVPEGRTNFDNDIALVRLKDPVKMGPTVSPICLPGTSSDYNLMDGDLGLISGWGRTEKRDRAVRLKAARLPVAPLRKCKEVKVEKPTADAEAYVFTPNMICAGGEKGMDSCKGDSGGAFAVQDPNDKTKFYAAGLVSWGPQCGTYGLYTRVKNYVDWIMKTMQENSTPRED
Human complement C1s enzyme, sequence (P09871 16-437 partner limits assumed): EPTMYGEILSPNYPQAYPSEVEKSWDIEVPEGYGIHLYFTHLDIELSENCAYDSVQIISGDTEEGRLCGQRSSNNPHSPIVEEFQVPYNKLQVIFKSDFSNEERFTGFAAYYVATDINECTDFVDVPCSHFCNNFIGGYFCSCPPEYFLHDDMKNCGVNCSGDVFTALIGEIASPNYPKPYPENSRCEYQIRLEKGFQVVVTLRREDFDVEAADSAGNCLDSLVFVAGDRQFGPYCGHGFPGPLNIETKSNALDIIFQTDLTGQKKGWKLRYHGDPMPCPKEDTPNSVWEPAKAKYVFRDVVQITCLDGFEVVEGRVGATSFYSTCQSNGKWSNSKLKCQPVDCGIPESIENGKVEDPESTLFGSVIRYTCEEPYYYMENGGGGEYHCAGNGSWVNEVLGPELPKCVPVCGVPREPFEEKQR

This experiment concerns the target Human complement C1s enzyme (Homo sapiens (Human), UniProt P09871). Briefly: Human C1s enzyme assay. Type of experiment: biochemical. The following applies: Human complement C1s enzyme 1.16 nM, substrate Z-L-Lys-SBzl 100 μM, assay of Example 3; read-out: IC50 (Stars). The method in brief: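 Purified serum-derived human C1s (1.16 nM final) preincubated 5 min at room temperature with compound in 50 mM Tris, 1 M NaCl, pH 7.5. Z-L-Lys-SBzl thioester substrate and DTNB added (100 μM each, final); A405 read every 30 s for 30 min. IC50 from nonlinear regression of reaction rates against compound concentration.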
On to `C[C@@H](NC(=O)[C@@H]1C[C@]2(COCCN(C)C)C[C@@H]2N1C(=O)CNC(=O)c1ccc2c(c1)-c1ccccc1C2(F)F)c1cc(C(=N)N)cs1` [Compound 367, (1S,3S,5R)—N—((R)-1-(4-carbamimidoylthiophen-2-yl)ethyl)-2-((9,9-difluoro-9H-fluorene-3-carbonyl)glycyl)-5-((2-(dimethylamino)ethoxy)methyl)-2-azabicyclo[3.1.0]hexane-3-carboxamide], for which the IC50 was below 0.1 µM. Turning to `C[C@@H](NC(=O)[C@@H]1C[C@](F)(CF)CN1C(=O)CNC(=O)c1ccc2c(c1)C(C)(C)c1ccccc1-2)c1cc(C(=N)N)cs1` [Compound 368, (2S,4R)—N—((R)-1-(4-carbamimidoylthiophen-2-yl)ethyl)-1-((9,9-dimethyl-9H-fluorene-2-carbonyl)glycyl)-4-fluoro-4-(fluoromethyl)pyrrolidine-2-carboxamide], the IC50 was below 0.1 µM. Under `C[C@@H](NC(=O)[C@@H]1C[C@@H](S(C)(=O)=O)CN1C(=O)CNC(=O)c1ccc2c(c1)C(C)(C)c1ccccc1-2)c1cc(C(=N)N)cs1` [Compound 369, (2S,4R)—N—((R)-1-(4-carbamimidoylthiophen-2-yl)ethyl)-1-((9,9-dimethyl-9H-fluorene-2-carbonyl)glycyl)-4-(methylsulfonyl)pyrrolidine-2-carboxamide] stands below 0.1 µM.

Take `C[C@@H](NC(=O)[C@@H]1C[C@H](c2ccncc2)CN1C(=O)CNC(=O)c1ccc2c(c1)-c1ccccc1C2(F)F)c1cc(C(=N)N)cs1` [Compound 370, (2S,4R)—N—((R)-1-(4-carbamimidoylthiophen-2-yl)ethyl)-1-((9,9-difluoro-9H-fluorene-3-carbonyl)glycyl)-4-(pyridin-4-yl)pyrrolidine-2-carboxamide]: the IC50 was below 0.1 µM. Turning to `CC1c2ccccc2-c2ccc(C(=O)NCC(=O)N3C[C@@](F)(CF)C[C@H]3C(=O)N[C@H](C)c3cc(C(=N)N)cs3)cc21` (stereo partly drawn) [Compound 371, (2S,4R)—N—((R)-1-(4-carbamimidoylthiophen-2-yl)ethyl)-4-fluoro-4-(fluoromethyl)-1-((9-methyl-9H-fluorene-2-carbonyl)glycyl)pyrrolidine-2-carboxamide], the IC50 is below 0.1 µM. Under `C[C@@H](NC(=O)[C@@H]1C[C@](F)(CF)CN1C(=O)CNC(=O)c1ccc2c(c1)oc1ccccc12)c1cc(C(=N)N)cs1` [Compound 372, (2S,4R)—N—((R)-1-(4-carbamimidoylthiophen-2-yl)ethyl)-1-((dibenzo[b,d]furan-3-carbonyl)glycyl)-4-fluoro-4-(fluoromethyl)pyrrolidine-2-carboxamide] stands below 0.1 µM. As to `COC[C@@]1(F)C[C@@H](C(=O)N[C@H](C)c2cc(C(=N)N)cs2)N(C(=O)CNC(=O)c2ccc3c(c2)Oc2ccccc2S3)C1` [Compound 373, (2S,4R)—N—((R)-1-(4-carbamimidoylthiophen-2-yl)ethyl)-4-fluoro-4-(methoxymethyl)-1-((phenoxathiine-3-carbonyl)glycyl)pyrrolidine-2-carboxamide], the half-maximal inhibitory concentration (IC50) was below 0.1 µM. On to `C[C@@H](NC(=O)[C@@H]1CC2(CN1C(=O)CNC(=O)c1ccc3c(c1)[nH]c1ccccc13)OCCO2)c1cc(C(=N)N)cs1` [Compound 374, (S)-7-((9H-carbazole-2-carbonyl)glycyl)-N—((R)-1-(4-carbamimidoylthiophen-2-yl)ethyl)-1,4-dioxa-7-azaspiro[4.4]nonane-8-carboxamide], for which the 50% inhibitory concentration (IC50) was below 0.1 µM. With `C[C@@H](NC(=O)[C@@H]1C[C@](F)(CF)CN1C(=O)CNC(=O)c1ccc2c(c1)S(=O)(=O)c1ccccc1-2)c1cc(C(=N)N)cs1` [Compound 375, (2S,4R)—N—((R)-1-(4-carbamimidoylthiophen-2-yl)ethyl)-1-((5,5-dioxidodibenzo[b,d]thiophene-3-carbonyl)glycyl)-4-fluoro-4-(fluoromethyl)pyrrolidine-2-carboxamide] the figure was below 0.1 µM; with `N=C(N)c1csc([C@@H](CO)NC(=O)[C@@H]2CC3(CN2C(=O)CNC(=O)c2ccc4c(c2)-c2ccccc2C4(F)F)OCCO3)c1` [Compound 376, (S)—N—((R)-1-(4-carbamimidoylthiophen-2-yl)-2-hydroxyethyl)-7-((9,9-difluoro-9H-fluorene-3-carbonyl)glycyl)-1,4-dioxa-7-azaspiro [4.4]nonane-8-carboxamide], below 0.1 µM. Consider `C[C@@H](NC(=O)[C@@H]1C[C@@H](c2ccncc2)CN1C(=O)CNC(=O)c1ccc2c(c1)-c1ccccc1C2(F)F)c1cc(C(=N)N)cs1` [Compound 377, (2S,4S)—N—((R)-1-(4-carbamimidoylthiophen-2-yl)ethyl)-1-((9,9-difluoro-9H-fluorene-3-carbonyl)glycyl)-4-(pyridin-4-yl)pyrrolidine-2-carboxamide], for which the IC50 was below 0.1 µM. For the molecule `C[C@@H](NC(=O)[C@@H]1C[C@@H](S(C)(=O)=O)CN1C(=O)CNC(=O)c1ccc2c(c1)sc1ccccc12)c1cc(C(=N)N)cs1` [Compound 378, (2S,4R)—N—((R)-1-(4-carbamimidoylthiophen-2-yl)ethyl)-1-((dibenzo[b,d]thiophene-3-carbonyl)glycyl)-4-(methylsulfonyl)pyrrolidine-2-carboxamide], the IC50 was below 0.1 µM. With `C[C@@H](NC(=O)[C@@H]1C[C@@H](S(C)(=O)=O)CN1C(=O)CNC(=O)c1ccc2c(c1)oc1ccccc12)c1cc(C(=N)N)cs1` [Compound 379, (2S,4R)—N—((R)-1-(4-carbamimidoylthiophen-2-yl)ethyl)-1-((dibenzo[b,d]furan-3-carbonyl)glycyl)-4-(methylsulfonyl)pyrrolidine-2-carboxamide] the figure was below 0.1 µM; with `CC1(C)c2ccccc2-c2cc(C(=O)NCC(=O)N3C[C@H](S(C)(=O)=O)C[C@H]3C(=O)N[C@H](CO)c3cc(C(=N)N)cs3)ccc21` [Compound 380, (2S,4R)—N—((R)-1-(4-carbamimidoylthiophen-2-yl)-2-hydroxyethyl)-1-((9,9-dimethyl-9H-fluorene-3-carbonyl)glycyl)-4-(methylsulfonyl) pyrrolidine-2-carboxamide], below 0.1 µM.

Turning to `C[C@@H](NC(=O)[C@@H]1C[C@@H](S(C)(=O)=O)CN1C(=O)CNC(=O)c1ccc2c(c1)S(=O)(=O)c1ccccc1-2)c1cc(C(=N)N)cs1` [Compound 381, (2S,4R)—N—((R)-1-(4-carbamimidoylthiophen-2-yl)ethyl)-1-((5,5-dioxidodibenzo[b,d]thiophene-3-carbonyl)glycyl)-4-(methylsulfonyl) pyrrolidine-2-carboxamide], the half-maximal inhibitory concentration (IC50) was below 0.1 µM. On to `C[C@@H](NC(=O)[C@@H]1C[C@]2(COCCCN)C[C@@H]2N1C(=O)CNC(=O)c1ccc2c(c1)-c1ccccc1C2(F)F)c1cc(C(=N)N)cs1` [Compound 382, (1S,3S,5R)-5-((3-aminopropoxy)methyl)-N—((R)-1-(4-carbamimidoylthiophen-2-yl)ethyl)-2-((9,9-difluoro-9H-fluorene-3-carbonyl)glycyl)-2-azabicyclo[3.1.0]hexane-3-carboxamide], for which the IC50 was below 0.1 µM.

With `CS(=O)(=O)[C@@H]1C[C@@H](C(=O)N[C@H](CO)c2cc(C(=N)N)cs2)N(C(=O)CNC(=O)c2ncc(-c3ccccc3)cc2F)C1` [Compound 383, N-(2-((2S,4R)-2-(((R)-1-(4-carbamimidoylthiophen-2-yl)-2-hydroxyethyl)carbamoyl)-4-(methylsulfonyl)pyrrolidin-1-yl)-2-oxoethyl)-3-fluoro-5-phenylpicolinamide], the IC50 was below 0.1 µM. Regarding `O=C(NCC(=O)N1CC2(C[C@H]1C(=O)NCc1ccn[nH]1)OCCO2)c1ccc(Oc2ccccc2)cc1` [Compound 384, (S)-N-((1H-pyrazol-5-yl)methyl)-7-((4-phenoxybenzoyl)glycyl)-1,4-dioxa-7-azaspiro[4.4]nonane-8-carboxamide], the IC50 was above 1 µM. On to `C[C@@H](NC(=O)[C@@H]1C[C@@H](OC(F)F)CN1C(=O)CN1Cc2cc(-c3ccccc3)ccc2C1=O)c1cc(C(=N)N)cs1` [Compound 385, (2S,4R)—N—((R)-1-(4-carbamimidoylthiophen-2-yl)ethyl)-4-(difluoromethoxy)-1-(2-(1-oxo-5-phenylisoindolin-2-yl)acetyl)pyrrolidine-2-carboxamide], for which the half-inhibitory concentration (IC50) is below 0.1 µM.

In the case of `C[C@@H](NC(=O)[C@@H]1CC2(CN1C(=O)CN1Cc3ccc(-c4ccccc4)cc3C1=O)OCCO2)c1cc(C(=N)N)cs1` [Compound 386, (S)—N—((R)-1-(4-carbamimidoylthiophen-2-yl)ethyl)-7-(2-(1-oxo-6-phenylisoindolin-2-yl)acetyl)-1,4-dioxa-7-azaspiro[4.4]nonane-8-carboxamide], the IC50 was below 0.1 µM. As to `C[C@@]12C[C@@H]1N(C(=O)CNC(=O)c1ccc(Oc3ccccc3)cc1)[C@H](C(=O)NCc1cccc(Cl)c1Cl)C2` [Compound 387, (1S,3S,5S)—N-(2,3-dichlorobenzyl)-5-methyl-2-((4-phenoxybenzoyl)glycyl)-2-azabicyclo[3.1.0]hexane-3-carboxamide], the half-inhibitory concentration (IC50) was above 1 µM. Turning to `Cc1ccc(-c2cnc(C(=O)NCC(=O)N3CC4(C[C@H]3C(=O)N[C@H](C)c3cc(C(=N)N)cs3)OCCO4)c(F)c2)cc1` [Compound 388, (S)—N—((R)-1-(4-carbamimidoylthiophen-2-yl)ethyl)-7-((3-fluoro-5-(p-tolyl)picolinoyl)glycyl)-1,4-dioxa-7-azaspiro[4.4]nonane-8-carboxamide], the 50% inhibitory concentration (IC50) was below 0.1 µM. Turning to `COC[C@@]1(F)C[C@@H](C(=O)N[C@H](C)c2cc(C(=N)N)cs2)N(C(=O)CNC(=O)c2ccc3[nH]c4ccccc4c3c2)C1` [Compound 389, N-(2-((2S,4R)-2-(((R)-1-(4-carbamimidoylthiophen-2-yl)ethyl)carbamoyl)-4-fluoro-4-(methoxymethyl)pyrrolidin-1-yl)-2-oxoethyl)-9H-carbazole-3-carboxamide], the IC50 is below 0.1 µM.

The values are drawn from patent US20250346585A1 (Alexion Pharmaceuticals, Inc., priority 2022, published 2025).
